From patent US8865748B2, “Compounds and compositions for stabilizing hypoxia inducible factor-2 alpha as a method for treating cancer” (Akebia Therapeutics Inc., priority 2011, dated 2014)

Assays:
[1] = system: phosphoglycerate kinase (PGK) mRNA; test: Phosphoglycerate kinase (PGK) mRNA expression in wild type murine embryonic fibroblasts (quantitative PCR); format: cell-based; settings: hypoxic conditions (1% O2); 1, 10 and 100 μM; vs. hypoxia control; FIG. 2A
Protocol: Total RNA was isolated from tissues and cells by using TRIzol™ Reagent (Invitrogen) and the RNeasy kit (Qiagen), respectively. 1 μg RNA was used for reverse transcription using SuperScript II First-Strand Synthersis System (Invitrogen). cDNA's were amplified in a SYR Green or TaqMan Universal Master Mix (Applied Biosystems). Quantitative PCR (qPCR) was performed on ABI Prism 7700 sequence detection system. PCR conditions are: 10 min at 95° C., 40 cycles of 15 seconds at 95° C. and 1 minute at 60° C. The relative amount of mRNA was calculated after normalization to β-actin.
Cells were cultured in DMEM (#11965-092, Invitrogen) supplemented with 10% fetal bovine serum (Invitrogen), 100 U/mL penicillin and […] streptomycin. For glucose deprivation, DMEM without glucose (#11966-025, Invitrogen) was used.
Mouse embryonic fibroblasts (MEFs) were isolated from E12.5 embryos and immortalized by stable transfection with SV40 large T antigen.

[2] = system: VEGF; test: VEGF production by human peripheral blood monocytes (ELISA, real-time PCR); format: cell-based; settings: FIG. 11C
Protocol: Human peripheral blood mononuclear cells (PBMCs) were isolated from fresh peripheral blood leukocyte source packs (American Red Cross, Columbus Ohio) by density gradient centrifugation over Lymphocyte Separation Medium (Cellgro). Monocytes were purified from total PBMCs by layering over FBS. Monocytes were cultured in endotoxin-free RPMI-1640 supplemented with 1% fetal bovine serum (FBS), 0.1% human serum albumin (HSA), and 10 μg/mL of the endotoxin inhibitor polymyxin B. In some experiments, freshly isolated monocytes were differentiated into macrophages by three-day culture in media containing 10% FBS, 1% PSA (penicillin G sodium, streptomycin sulfate, and amphotericin B), and 20 ng/mL M-CSF. Macrophages were serum-starved for 2 hours prior to stimulation. Monocytes or monocyte-derived macrophages were treated for 24 hours with 10 ng/mL GM-CSF, 10 μM disclosed HIF-2α stabilizer, or an equivalent volume of the vehicle controls (PBS or DMSO, respectively). Cell-free culture supernatants were harvested and analyzed for VEGF or sVEGFR-1 by ELISA (R&D Systems).
Human monocytes were left untreated or were stimulated with 100 ng/mL GM-CSF at normoxia or at 0.5% O2. At various time-points, cells were harvested in Trizol reagent (Invitrogen) and RNA was extracted in chloroform and then purified using the RNeasy Minikit (Qiagen). In murine studies, organs harvested at the time of euthanasia were flash-frozen in liquid nitrogen, pulverized in liquid nitrogen, and then dissolved in Trizol. cDNA was generated from 1 μg of RNA using the Superscript First Strand Synthesis System (Invitrogen) and used for real-time PCR using previously described primers and SYBR Green PCR Master Mix (Applied Biosciences), according to the manufacturer's instructions. Data were analyzed according to the comparative threshold method and normalized against the β-actin internal control transcript. Results are semi-quantitative and represent the fold difference in transcript levels in a particular sample as compared with levels in untreated cells from the same donor.
VEGF protein was undetectable in the supernatants of GM-CSF-stimulated monocytes, due to neutralization of VEGF by sVEGFR-1 (FIG. 11C).
Since monocyte production of VEGF was dependent on HIF-1α, the inventors herein determined whether selective stabilization of HIF-1α via inhibition of PHD2 would increase monocyte production of VEGF but not sVEGFR-1. In order to make such determination, human peripheral blood monocytes were stimulated with GM-CSF in the presence of a selective inhibitor of PHD2 which results in the stabilization of HIF-1α.

[3] = system: HIF-2α; test: Immunoblot for HIF-2α in murine bone marrow-derived macrophages; format: cell-based; settings: treated for 18 hours, FIG. 11A
Protocol: To generate bone marrow-derived macrophages (BDMs), femoral bone marrow was isolated and progenitor cells were plated in RPMI-1640 supplemented with 10% FBS, 1% PSA, 10 μg/mL of polymyxin B, and 20 ng/mL of recombinant murine M-CSF. Cells were cultured for 5 days with the addition of fresh M-CSF every other day. Differentiated BDM were serum-starved for 2 hours and then treated with 100 ng/mL of murine GM-CSF and/or 25 μM the disclosed HIF-2α stabilizer in RPMI-1640 containing 1% FBS and 10 μg/mL polymixin B. Culture supernatants were collected after 72 hours and assayed for VEGF and sVEGFR-1 content by ELISA (R&D Systems).
In order to confirm the selective upregulation of HIF-2α by the disclosed HIF-2α stabilizer, murine bone marrow-derived macrophages were treated with the disclosed HIF-2α stabilizer for 18 hours, and cells were then lysed and immunoblotted for HIF-1α and HIF-2α.

[4] = system: sVEGFR-1; test: sVEGFR-1 transcription in bone marrow-derived macrophages from LysMcre control and HIF-2α^flox/flox/LysMcre mice; format: cell-based; settings: FIG. 11F
Text: HIF-2α^flox/flox mice (originally developed by Dr. Celeste Simon, University of Pennsylvania) and LysMcre recombinase mice (originally developed by Irmgard Foerster, University of Duesseldorf) (both purchased from The Jackson Laboratory, Bar Harbor, Me.) were crossed to generate mice homozygous for both LysMcre and the floxed HIF-2α allele. LysMcre recombinase mice, which express no floxed alleles, were used as controls. Deletion of HIF-2α in HIF-2α^flox/flox/LysMcre macrophages, but not the LysMcre control macrophages, was confirmed at the transcript level by real-time PCR.
To generate bone marrow-derived macrophages (BDMs), femoral bone marrow was isolated and progenitor cells were plated in RPMI-1640 supplemented with 10% FBS, 1% PSA, 10 μg/mL of polymyxin B, and 20 ng/mL of recombinant murine M-CSF. Cells were cultured for 5 days with the addition of fresh M-CSF every other day. […]
Human monocytes were left untreated or were stimulated with 100 ng/mL GM-CSF at normoxia or at 0.5% O2. […] Data were analyzed according to the comparative threshold method and normalized against the β-actin internal control transcript. Results are semi-quantitative and represent the fold difference in transcript levels in a particular sample as compared with levels in untreated cells from the same donor. […]

[5] = system: endothelial cell marker CD31; test: Tumor vascularity by CD31 immunohistochemistry in melanoma-bearing mice; format: in vivo; settings: mice treated with the control antibody; FIG. 14B; p=0.022

SMILES: O=C(O)CNC(=O)c1ncc(-c2cccc(F)c2)cc1O [disclosed HIF-2α stabilizer, {[5-(3-Fluorophenyl)-3-hydroxypyridine-2-carbonyl]amino}acetic acid]
- PGK mRNA (relative amount) [1]: dramatic reduction
- VEGF production, transcript levels by real-time PCR ([2]; GM-CSF alone vs. GM-CSF and stabilizer, p=0.556): no difference
- production of VEGF protein (free VEGF ELISA) ([2]; same supernatants as sVEGFR-1, 10 μM stabilizer, p=0.133): did not significantly increase
- HIF-2α protein [3]: increase
- sVEGFR-1 transcription ([4]; HIF-2α-deficient macrophages, p=0.881): not
- sVEGFR-1 transcription ([4]; control macrophages, p=0.036): induced
- tumor vascularity (CD31) [5]: decreased tumor vascularity
